Laboratory results as given in US7507748B2, “Substituted aryl-amine derivatives and methods of use” (Amgen Inc., priority 2004, dated 2009).

System: Human Umbilical Vein Endothelial cells
Assay: VEGF-stimulated HUVEC proliferation assay
Assay type: cell-based
Details: 72 h, CyQuant, read-out: inhibited VEGF-stimulated HUVEC proliferation at a level
Procedure: Human Umbilical Vein Endothelial cells are purchased from Clonetics, Inc., as cryopreserved cells harvested from a pool of donors. These cells, at passage 1, are thawed and expanded in EBM-2 complete medium, until passage 2 or 3. The cells are trypsinized, washed in DMEM+10% FBS+antibiotics, and spun at 1000 rpm for 10 min. Prior to centrifugation of the cells, a small amount is collected for a cell count. After centrifugation, the medium is discarded, and the cells are resuspended in the appropriate volume of DMEM+10% FBS+antibiotics to achieve a concentration of 3×10^5 cells/mL. Another cell count is performed to confirm the cell concentration. The cells are diluted to 3×10^4 cells/mL in DMEM+10% FBS+antibiotics, and 100 μL of cells are added to a 96-well plate. The cells are incubated at 37° C. for 22 h.
Prior to the completion of the incubation period, compound dilutions are prepared. Five-point, five-fold serial dilutions are prepared in DMSO, at concentrations 400-fold greater than the final concentrations desired. 2.5 μL of each compound dilution are diluted further in a total of 1 mL DMEM+10% FBS+antibiotics (400× dilution). Medium containing 0.25% DMSO is also prepared for the 0 μM compound sample. At the 22-hour timepoint, the medium is removed from the cells, and 100 μL of each compound dilution is added. The cells are incubated at 37° C. for 2-3 h.
During the compound pre-incubation period, the growth factors are diluted to the appropriate concentrations. Solutions of DMEM+10% FBS+antibiotics, containing either VEGF or bFGF at the following concentrations: 50, 10, 2, 0.4, 0.08, and 0 ng/mL are prepared. For the compound-treated cells, solutions of VEGF at 550 ng/mL or bFGF at 220 ng/mL for 50 ng/mL or 20 ng/mL final concentrations, respectively, are prepared since 10 μL of each will be added to the cells (110 μL final volume). At the appropriate time after adding the compounds, the growth factors are added. VEGF is added to one set of plates, while bFGF is added to another set of plates. For the growth factor control curves, the media on wells B4-G6 of plates 1 and 2 are replaced with media containing VEGF or bFGF at the varying concentrations (50-0 ng/mL). The cells are incubated at 37° C. for an additional 72 h.
At the completion of the 72 h incubation period, the medium is removed, and the cells are washed twice with PBS. After the second wash with PBS, the plates are tapped gently to remove excess PBS, and the cells are placed at −70° C. for at least 30 min. The cells are thawed and analyzed using the CyQuant fluorescent dye (Molecular Probes C-7026), following the manufacturer's recommendations. The plates are read on a Victor/Wallac 1420 workstation at 485 nm/530 nm (excitation/emission). Raw data are collected and analyzed using a 4-parameter fit equation in XLFit. IC50 values are then determined.

Row | SMILES | IC50 [nM]
1 | CCOC(=O)C(C)c1ccc(NC(=O)c2cccnc2Nc2ccc3ccncc3c2)cc1 (racemic) [Example 52, 2(R,S)-(4-{[2-(Isoquinolin-7-ylamino)-pyridine-3-carbonyl]-amino}-phenyl)-propionic acid ethyl ester] | < 1000
2 | CC(C(=O)O)c1ccc(NC(=O)c2cccnc2Nc2ccc3ccncc3c2)cc1 (racemic) [Example 53, 2(R,S)-(4-{[2-(Isoquinolin-7-ylamino)-pyridine-3-carbonyl]-amino}-phenyl)-propionic acid] | < 1000
3 | CC1(C)CN(C(=O)[C@H]2CCCO2)Cc2cc(NC(=O)c3cccnc3Nc3ccc4ccncc4c3)ccc21 (stereo in doubt) [Example 74, N-[4,4-Dimethyl-2-(tetrahydro-furan-2-carbonyl)-1,2,3,4-tetrahydro-isoquinolin-7-yl]-2-(isoquinolin-7-ylamino)-nicotinamide] | < 1000
4 | COC(c1ccc(NC(=O)c2cccnc2Nc2ccc3ccncc3c2)cc1)(C(F)(F)F)C(F)(F)F [Example 10, 2-(Isoquinolin-7-ylamino)-N-[4-(2,2,2-trifluoro-1-methoxy-1-trifluoromethyl-ethyl)-phenyl]-nicotinamide] | < 1000
5 | O=C(Nc1ccc(C(F)(F)C(F)(F)F)cc1)c1cccnc1Nc1ccc2ccncc2c1 [Example 11, 2-(Isoquinolin-7-ylamino)-N-(4-pentafluoroethyl-phenyl)-nicotinamide] | < 1000
6 | O=C(Nc1ccc(C(F)(F)F)cc1)c1cccnc1Nc1ccc2ccncc2c1 [Example 12, 2-(Isoquinolin-7-ylamino)-N-(4-trifluoromethyl-phenyl)-nicotinamide] | < 1000
7 | CC(=O)N1Cc2cc(NC(=O)c3cccnc3Nc3ccc4ccncc4c3)ccc2C(C)(C)C1 [Example 13, N-(2-Acetyl-4,4-dimethyl-1,2,3,4-tetrahydro-isoquinolin-7-yl)-2-(isoquinolin-7-ylamino)-nicotinamide] | < 1000
8 | CC(C)(C)c1ccc(NC(=O)c2cccnc2Nc2ccc3ccncc3c2)cc1 [Example 14, N-(4-tert-Butyl-phenyl)-2-(isoquinolin-7-ylamino)-nicotinamide] | < 1000
9 | CC(C)(C)c1cc(NC(=O)c2cccnc2Nc2ccc3ccncc3c2)no1 [Example 15, N-(5-tert-Butyl-isoxazol-3-yl)-2-(isoquinolin-7-ylamino)-nicotinamide] | < 1000
10 | CNc1ncnc2ccc(Nc3ncccc3C(=O)Nc3ccc4c(c3)CN(C(C)=O)CC4(C)C)cc12 [Example 16, N-(2-Acetyl-4,4-dimethyl-1,2,3,4-tetrahydro-isoquinolin-7-yl)-2-(4-methylamino-quinazolin-6-ylamino)-nicotinamide] | < 1000
11 | CC1(C)CNCc2cc(NC(=O)c3cccnc3Nc3ccc4c(c3)OC(F)(F)O4)ccc21 [Example 22, 2-(2,2-Difluoro-benzo[1,3]dioxol-5-ylamino)-N-(4,4-dimethyl-1,2,3,4-tetrahydro-isoquinolin-7-yl)-nicotinamide] | < 1000
12 | Cc1nc2cc(NC(=O)c3cccnc3Nc3ccc4[nH]nnc4c3)ccc2s1 [Example 23, 2-(1H-Benzotriazol-5-ylamino)-N-(2-methyl-benzothiazol-5-yl)-nicotinamide] | < 1000
13 | CC1(C)CC(=O)Nc2cc(NC(=O)c3cccnc3Nc3ccc4[nH]nnc4c3)ccc21 [Example 24, 2-(1H-1,2,3-benzotriazol-5-ylamino)-N-(4,4-dimethyl-2-oxo-1,2,3,4-tetrahydroquinolin-7-yl)nicotinamide] | < 1000
14 | CC(C)(C)c1cc(NC(=O)c2cccnc2Nc2ccc3[nH]nnc3c2)no1 [Example 25, 2-(1H-benzo[d][1,2,3]triazol-5-ylamino)-N-(5-tert-butylisoxazol-3-yl)nicotinamide] | < 1000
15 | CC(C)(C)c1ccc(NC(=O)c2ccccc2Nc2ccc3ccncc3c2)cc1 [Example 27, N-(4-tert-Butyl-phenyl)-2-(isoquinolin-7-ylamino)-benzamide] | < 1000
16 | CC1(C)CCNc2cc(NC(=O)c3ccccc3Nc3ccc4ccncc4c3)ccc21 [Example 28, N-(4,4-Dimethyl-1,2,3,4-tetrahydro-quinolin-7-yl)-2-(isoquinolin-7-ylamino)-benzamide] | < 1000

Row | SMILES | IC50 [nM]
17 | CC(C)(C)c1ccc(NC(=O)c2cccc(F)c2Nc2ccc3ccncc3c2)cc1 [Example 29, N-(4-tert-Butyl-phenyl)-3-fluoro-2-(isoquinolin-7-ylamino)-benzamide] | < 1000
18 | CC1(C)CCNc2cc(NC(=O)c3ccccc3Nc3ccc4ncncc4c3)ccc21 [Example 30, N-(4,4-Dimethyl-1,2,3,4-tetrahydro-quinolin-7-yl)-2-(quinazolin-6-ylamino)-benzamide] | < 1000
19 | CC(=O)N1CC(C)(C)c2ccc(NC(=O)c3cccnc3Nc3ccc4ccncc4c3)cc21 [Example 31, N-(1-Acetyl-3,3-dimethyl-2,3-dihydro-1H-indol-6-yl)-2-(isoquinolin-7-ylamino)-nicotinamide] | < 1000
20 | CC1(C)CNc2cc(NC(=O)c3cccnc3Nc3ccc4ccncc4c3)ccc21 [Example 32, N-(3,3-Dimethyl-2,3-dihydro-1H-indol-6-yl)-2-(isoquinolin-7-ylamino)-nicotinamide] | < 1000
21 | COc1cc(NC(=O)c2cccnc2Nc2ccc3ccncc3c2)cc(C(F)(F)F)c1 [Example 33, 2-(Isoquinolin-7-ylamino)-N-(3-methoxy-5-trifluoromethyl-phenyl)-nicotinamide] | < 1000
22 | O=C(Nc1ccc(Cl)c(C(F)(F)F)c1)c1cccnc1Nc1ccc2ccncc2c1 [Example 34, N-(4-Chloro-3-trifluoromethyl-phenyl)-2-(isoquinolin-7-ylamino)-nicotinamide] | < 1000
23 | CC(C)(C)c1ccc(NC(=O)c2cccnc2Nc2cnc3ccncc3c2)cc1 [Example 35, N-(4-tert-Butyl-phenyl)-2-([1,6]naphthyridin-3-ylamino)-nicotinamide] | < 1000
24 | CC(C)(C)OC(=O)N1Cc2cc(NC(=O)c3cccnc3Nc3cnc4ccncc4c3)ccc2C(C)(C)C1 [Example 36, 4,4-Dimethyl-7-{[2-([1,6]naphthyridin-3-ylamino)-pyridine-3-carbonyl]-amino}-3,4-dihydro-1H-isoquinoline-2-carboxylic acid tert butyl ester] | < 1000
25 | CC1(C)CNCc2cc(NC(=O)c3cccnc3Nc3cnc4ccncc4c3)ccc21 [Example 37, N-(4,4-Dimethyl-1,2,3,4-tetrahydro-isoquinolin-7-yl)-2-([1,6]naphthyridin-3-ylamino)-nicotinamide] | < 1000
26 | O=C(Nc1ccc(C(O)(C(F)(F)F)C(F)(F)F)cc1)c1cccnc1Nc1cnc2ccncc2c1 [Example 38, 2-([1,6]Naphthyridin-3-ylamino)-N-[4-(2,2,2-trifluoro-1-hydroxy-1-trifluoromethyl-ethyl)-phenyl]-nicotinamide] | < 1000
27 | Cc1nc2cc(NC(=O)c3cccnc3Nc3ccc4ccncc4c3)ccc2s1 [Example 39, 2-(isoquinolin-7-ylamino)-N-(2-methyl-1,3-benzothiazol-5-yl)nicotinamide] | < 1000
28 | O=C(Nc1cc(OCC2CCCO2)cc(C(F)(F)F)c1)c1cccnc1Nc1ccc2ccncc2c1 (centres unmarked) [Example 40] | < 1000
29 | CC1(C)CNCc2cc(NC(=O)c3cccnc3Nc3ccc4ccncc4c3)ccc21 [Example 41, N-(4,4-Dimethyl-1,2,3,4-tetrahydro-isoquinolin-7-yl)-2-(isoquinolin-7-ylamino)-nicotinamide] | < 1000
30 | CC(C)(C)c1ccc(NC(=O)c2cccnc2Nc2ccc3ccncc3c2)cn1 [Example 42, N-(6-tert-Butyl-pyridin-3-yl)-2-(isoquinolin-7-ylamino)-nicotinamide] | < 1000
31 | O=C(Nc1ccc(C(O)(C(F)(F)F)C(F)(F)F)cc1)c1cccnc1Nc1ccc2ccncc2c1 [Example 43, 2-(Isoquinolin-7-ylamino)-N-[4-(2,2,2-trifluoro-1-hydroxy-1-trifluoromethyl-ethyl)-phenyl]-nicotinamide] | < 1000
32 | CC(C)c1ccc(NC(=O)c2cccnc2Nc2ccc3ccncc3c2)cc1 [Example 44, N-(4-Isopropyl-phenyl)-2-(isoquinolin-7-ylamino)-nicotinamide] | < 1000
